The results in this text go back to patent publication US20230220206A1, “REJUVENATING AGENTS FOR ASPHALT RECYCLING” (BASF SE, priority 2020, published 2023).

The nature of data set [1]: MSCR elastic recovery of rejuvenated RAP bitumen. The class given is physicochemical. The settings on record: bitumen extracted from RAP + 5% compound.
Data set [2] can be described thus: Softening point ring & ball of rejuvenated bitumen. To be noted: bitumen 20/30 rejuvenated with 5% of the compound, 180° C., 30 minutes.
The format of data set [3] is physicochemical. To be noted: bitumen extracted from RAP + 5% compound.
Data set [4] is described as follows: MSCR elastic recovery of rejuvenated aged bitumen. The class given is physicochemical. To be noted: aged bitumen 50/70 PCK Schwedt + 5% compound.
Data set [5] in a line: Ageing index (RTFOT ageing) of rejuvenated polymer-modified bitumen. The data set is classed as physicochemical. The settings on record: Olexobit 45 + 5% compound; viscosity after ageing divided by viscosity before ageing. The source says:
Herewith, it will be shown that the positive effects of the here claimed rejuvenating agents can also be applied to PmB, in this case Olexobit 45. Olexobit 45 was therefore rejuvenated according to the procedure of Example 1.

For Polypropylenglycol bis glycidylether, the “MSCR % Rec. (0.1 kPa)” value in data set [1] (0.1 kPa) was found to be 10%; in data set [4] (0.1 kPa) it was 5%. Moreover, the entries for the “MSCR % Rec. (1.6 kPa)” value in data set [1] (1.6 kPa) and in data set [4] (1.6 kPa) were 6% and 1%, respectively. Moreover, the “MSCR % Rec. (3.2 kPa)” value worked out at 3% in data set [1] (3.2 kPa) and 0% in data set [4] (3.2 kPa). Moreover, in data set [2], the “SP [° C.] (softening point)” value is 50.0 °C. In addition, the “η(135° C.) [mPas]” value in data set [3] was 1,100 mPas. The “AI (ageing index)” value in data set [5] amounted to 2.2.
